Test results: patent US20260027094A1, “USE OF PYRIDONE DERIVATIVE” (GUANGZHOU JOYO PHARMATECH CO., LTD, priority 2022, published 2026)

System: TNBS-induced SD rat models of chronic colitis with intestinal fibrosis
Test: Pharmacodynamic experiment of TNBS-induced rat models of chronic colitis with intestinal fibrosis
Type: in vivo, SD rats
Details: for AUC(0-10 d) (D 0-D 10) of DAI scores: after first TNBS induction; for AUC(0-10 d) (D 0-D 10) of DAI scores / AUC(14-24 d) (D 14-D 24) of DAI scores: mean ± SD; for AUC(14-24 d) (D 14-D 24) of DAI scores: after second TNBS induction; for CVF (%) of colon middle segment: Masson staining, model control 6.39 ± 3.16, normal 0.74 ± 0.32; for Inflammatory response (points), histopathological score of colon tissue / Tissue ulcer (points), histopathological score of colon tissue: colon middle segment, model control 2.00 ± 0.00; for HYP (μg/g) of colon middle segment: model control 2109.99 ± 385.85, normal 1141.78 ± 106.42; for Change rate of AUC(0-10 d) (%) / Change rate of AUC(14-24 d) (%): relative to model control group
Excerpt: • 1) Animals: SD rats, specific pathogen-free (SPF) grade, male, aged 7 to 8 weeks at the time of grouping, with 10 rats per group. The animals were supplied by Beijing HFK Bioscience Co., Ltd. • 2) Reagents, positive drugs, and test drugs • A. Reagents
• B. Positive Drugs: Sulfasalazine Colon-Soluble Capsules, Supplied by Guangdong Qiangji Pharmaceutical Co., Ltd. • C. Test Drug: Compound I, Supplied by Guangzhou JOYO Pharmatech Co., Ltd. • 3) Modeling method
TNBS two-enema method: After the adaptation period inspection and observation were qualified, experimental animals were screened by body weight and randomly divided into six experimental groups based on body weight. The groups included a normal control group, a model control group, a positive drug treatment group, a test compound low dose treatment group, a test compound medium dose treatment group, and a test compound high dose treatment group, with 10 rats in each group. On the day of grouping, animals in the normal control group were administered 50% ethanol solution via enema, while animals in the other groups were administered TNBS ethanol solution via enema. The dose of TNBS was 30 mg per animal, with the induction of the model performed twice at a frequency of once every two weeks. The experimental period lasted for 4 weeks, during which all animals were given normal access to water and food. • 4) Grouping and administration
The Disease Activity Index (DAI) scoring was performed on each group of experimental animals based on indicators such as animal body weight, stool morphology and characteristics, and occult blood or hematochezia. Scoring was performed after model induction, once a day for 10 consecutive days, for a total of 2 rounds.
Note: The DAI score was performed based on the percentage of body weight loss, stool morphology, and progression of blood in the stool. Statistical analysis was conducted comprehensively using these three scoring indicators. • 6) Endpoint sample collection, histopathological analysis, and hydroxyproline content analysis • A. After euthanizing the animals with pentobarbital sodium anesthesia, the colon, i.e., the segment from the end of cecum to the anus, was excised. The intestinal segment was flushed with normal saline, and the entire colon was evenly divided into upper, middle, and lower segments. The middle segment of the colon was further divided, with part of the tissue quickly frozen in liquid nitrogen and stored in a −80° C. refrigerator for measuring the total hydroxyproline levels in the middle segment samples of the colon of animals in each group. The remaining middle segment tissue was fixed in 10% formaldehyde, embedded in paraffin, and sectioned into 3 μm-thick slices. These slices were then deparaffinized in xylene, rehydrated through a graded ethanol series, subjected to H&E staining and Masson staining, dehydrated, cleared, sealed, and observed under a microscope to capture histopathological changes. Routine tissue freezing was performed. • B. Histopathological analysis
• a: Based on the Masson staining results, the area of collagen staining-positive regions and the total area of samples from the middle segment samples of the colon (submucosa and muscularis) of animals in each experimental group were statistically analyzed using Image J to calculate the collagen volume fraction (CVF %) of each sample. • C. Detection of hydroxyproline levels in the colon
The middle segment samples of the colon were processed according to the instructions, using the hydroxyproline detection kit. The total hydroxyproline levels in the middle segment samples of the colon of animals in each group were measured.

[1] = Compound I high dose 15 mg/kg oral gavage twice a day
[2] = Compound I high dose 15 mg/kg twice a day for 4 weeks
[3] = Compound I high dose 15 mg/kg twice a day
[4] = Compound I low dose 3 mg/kg oral gavage twice a day
[5] = Compound I low dose 3 mg/kg twice a day for 4 weeks
[6] = Compound I low dose 3 mg/kg twice a day
[7] = Compound I medium dose 6 mg/kg oral gavage twice a day
[8] = Compound I medium dose 6 mg/kg twice a day for 4 weeks
[9] = Compound I medium dose 6 mg/kg twice a day

Compound: CC1(c2ccc(=O)n(-c3ccsc3)c2)COC1 [Compound I]
- Efficacy evaluation result (conclusion) (Compound I 3.0, 6.0 and 15.0 mg/kg twice a day, 4 weeks): significant therapeutic effect
- AUC(0-10 d) (D 0-D 10) of DAI scores [1]: 33.50 ± 3.97
- AUC(14-24 d) (D 14-D 24) of DAI scores [1]: 15.40 ± 3.50
- CVF (%) of colon middle segment [2]: 2.37 ± 1.33 %
- Inflammatory response (points), histopathological score of colon tissue [2]: 0.80 ± 0.79 points
- Tissue ulcer (points), histopathological score of colon tissue [2]: 0.70 ± 0.67 points
- HYP (μg/g) of colon middle segment [2]: 1270.56 ± 287.01 µg/g
- Change rate of AUC(0-10 d) (%) [3]: −26.78%
- Change rate of AUC(14-24 d) (%) [3]: −35.97%
- AUC(0-10 d) (D 0-D 10) of DAI scores [4]: 37.15 ± 4.93
- AUC(14-24 d) (D 14-D 24) of DAI scores [4]: 19.30 ± 2.79
- CVF (%) of colon middle segment [5]: 2.97 ± 1.78 %
- Inflammatory response (points), histopathological score of colon tissue [5]: 1.00 ± 0.67 points
- Tissue ulcer (points), histopathological score of colon tissue [5]: 0.80 ± 0.63 points
- HYP (μg/g) of colon middle segment [5]: 1333.43 ± 155.33 µg/g
- Change rate of AUC(0-10 d) (%) [6]: −18.80%
- Change rate of AUC(14-24 d) (%) [6]: −19.75%
- AUC(0-10 d) (D 0-D 10) of DAI scores [7]: 36.05 ± 4.87
- AUC(14-24 d) (D 14-D 24) of DAI scores [7]: 17.25 ± 3.16
- CVF (%) of colon middle segment [8]: 2.36 ± 1.47 %
- Inflammatory response (points), histopathological score of colon tissue [8]: 0.70 ± 0.67 points
- Tissue ulcer (points), histopathological score of colon tissue [8]: 0.70 ± 0.67 points
- HYP (μg/g) of colon middle segment [8]: 1228.40 ± 235.44^####+ μg/g
- Change rate of AUC(0-10 d) (%) [9]: −21.20%
- Change rate of AUC(14-24 d) (%) [9]: −28.27%
- Colon tissue healing and degree of fibrosis (histopathology) (all Compound I treatment groups (3, 6, 15 mg/kg twice a day)): tissue healing and a reduction in the degree of fibrosis were observed
- Effective dose (colon fibrosis, HYP level improvement) (oral gavage twice a day, certain dose-dependent relationship): 3.0 mg/kg
- Effective low dose (DAI AUC(0-10 d) improvement) (oral gavage twice a day, chronic colitis disease process): 3.0 mg/kg
